# Test results from ChEMBL document CHEMBL1201862, “PubChem BioAssay data set” (2004).
#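 Exposure lasted 48 hours, with cells grown in 96-well plates and compounds tested at five concentrations. The concentration for 50% growth inhibition is given as GI50.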 Calls of active or inactive are those of the source. Cut-off read from the data, not from the text of the source: active = GI50 up to about 1.1 µM and inactive = higher.
# Columns and labels:
# Experiment in all cases: NCI anticancer screen, dose series, 48 h
# 786-0 = test system: 786-0
# A498 = test system: A498
# A549 = test system: A549
# ACHN = test system: ACHN
# CAKI-1 = test system: CAKI-1
# CCRF-CEM = test system: CCRF-CEM
# COLO 205 = test system: COLO 205
# DLD-1 = test system: DLD-1
# DMS-114 = test system: DMS-114
# DMS-273 = test system: DMS-273
# EKVX = test system: EKVX
# HCC 2998 = test system: HCC 2998
# HCT-116 = test system: HCT-116
# HCT-15 = test system: HCT-15
# HL-60 = test system: HL-60
# HOP-18 = test system: HOP-18
# HOP-62 = test system: HOP-62
# HT-29 = test system: HT-29
# IGROV-1 = test system: IGROV-1
# K562 = test system: K562
# KM-20L2 = test system: KM-20L2
# KM12 = test system: KM12
# LOX IMVI = test system: LOX IMVI
# LXFL 529 = test system: LXFL 529
# M14 = test system: M14
# M19-MEL = test system: M19-MEL
# MOLT-4 = test system: MOLT-4
# Malme-3M = test system: Malme-3M
# NCI-H226 = test system: NCI-H226
# NCI-H23 = test system: NCI-H23
# NCI-H460 = test system: NCI-H460
# NCI-H522 = test system: NCI-H522
# OVCAR-3 = test system: OVCAR-3
# OVCAR-4 = test system: OVCAR-4
# OVCAR-5 = test system: OVCAR-5
# OVCAR-8 = test system: OVCAR-8
# RPMI-8226 = test system: RPMI-8226
# RXF 393 = test system: RXF 393
# SF-268 = test system: SF-268
# SF-295 = test system: SF-295
# SF-539 = test system: SF-539
# SK-MEL-28 = test system: SK-MEL-28
# SK-MEL-2 = test system: SK-MEL-2
# SK-MEL-5 = test system: SK-MEL-5
# SK-OV-3 = test system: SK-OV-3
# SN12C = test system: SN12C
# SNB-19 = test system: SNB-19
# SNB-75 = test system: SNB-75
# SNB-78 = test system: SNB-78
# SW-620 = test system: SW-620
# TK-10 = test system: TK-10
# U-251 = test system: U-251
# UACC-257 = test system: UACC-257
# UACC-62 = test system: UACC-62
# UO-31 = test system: UO-31
compound,measurement,setting,value
OC12c3ccccc3C3CCC4(OCCO4)C3C1c1ccccc12 (stereo not given),GI50,786-0,> 100 µM (inactive)
same,GI50,A498,52.1 µM (inactive)
same,GI50,A549,> 100 µM (inactive)
same,GI50,ACHN,> 100 µM (inactive)
same,GI50,CAKI-1,> 100 µM (inactive)
same,GI50,CCRF-CEM,> 100 µM (inactive)
same,GI50,COLO 205,> 100 µM (inactive)
same,GI50,DLD-1,> 100 µM (inactive)
same,GI50,DMS-114,53.6 µM (inactive)
same,GI50,DMS-273,> 100 µM (inactive)
same,GI50,EKVX,> 100 µM (inactive)
same,GI50,HCC 2998,> 100 µM (inactive)
same,GI50,HCT-116,> 100 µM (inactive)
same,GI50,HCT-15,> 100 µM
same,GI50,HL-60,> 100 µM (inactive)
same,GI50,HOP-18,> 100 µM (inactive)
same,GI50,HOP-62,> 100 µM (inactive)
same,GI50,HT-29,94.2 µM (inactive)
same,GI50,IGROV-1,61.8 µM (inactive)
same,GI50,K562,49.8 µM (inactive)
same,GI50,KM-20L2,> 100 µM (inactive)
same,GI50,KM12,> 100 µM (inactive)
same,GI50,LOX IMVI,> 100 µM (inactive)
same,GI50,LXFL 529,> 100 µM (inactive)
same,GI50,M14,> 100 µM (inactive)
same,GI50,M19-MEL,> 100 µM (inactive)
same,GI50,MOLT-4,48.6 µM (inactive)
same,GI50,Malme-3M,> 100 µM (inactive)
same,GI50,NCI-H226,> 100 µM (inactive)
same,GI50,NCI-H23,> 100 µM (inactive)
same,GI50,NCI-H460,> 100 µM (inactive)
same,GI50,NCI-H522,65 µM (inactive)
same,GI50,OVCAR-3,> 100 µM (inactive)
same,GI50,OVCAR-4,> 100 µM (inactive)
same,GI50,OVCAR-5,> 100 µM (inactive)
same,GI50,OVCAR-8,> 100 µM (inactive)
same,GI50,RPMI-8226,64 µM (inactive)
same,GI50,RXF 393,39.9 µM (inactive)
same,GI50,SF-268,> 100 µM (inactive)
same,GI50,SF-295,> 100 µM (inactive)
same,GI50,SF-539,> 100 µM (inactive)
same,GI50,SK-MEL-28,> 100 µM (inactive)
same,GI50,SK-MEL-2,> 100 µM (inactive)
same,GI50,SK-MEL-5,> 100 µM (inactive)
same,GI50,SK-OV-3,> 100 µM (inactive)
same,GI50,SN12C,> 100 µM (inactive)
same,GI50,SNB-19,> 100 µM (inactive)
same,GI50,SNB-75,39.6 µM (inactive)
same,GI50,SNB-78,> 100 µM (inactive)
same,GI50,SW-620,> 100 µM (inactive)
same,GI50,TK-10,83.2 µM (inactive)
same,GI50,U-251,> 100 µM (inactive)
same,GI50,UACC-257,71.9 µM (inactive)
same,GI50,UACC-62,> 100 µM (inactive)
same,GI50,UO-31,> 100 µM (inactive)
